Test results taken from US20110082130A1 (LIGAND PHARMACEUTICALS, INC., priority 2006, published 2011).

Each compound was assayed against T1, chimeric human H3 receptor (Homo sapiens, UniProt Q9Y5N1) (assay: Chimeric human H3 receptor GTP binding assay (agonist-stimulated GTP-gamma35S binding, Example 7)). Details: Table II; "*" = Ki in assay of Example 7 less than 1 micromolar.
T1 construct: made in house; host or cells: Sf9 insect cells (baculovirus); P2 membrane preparation
Format: biochemical
Summary of the method: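 Sf9 membranes co-expressing chimeric human H3 receptor and heterotrimeric G-protein, 35 μg/tube, in pH 7.4 Tris buffer with 10 μM GDP. Test compounds (10^−10–10^−6 M) competed against 1 μM histamine, […] GTP-gamma35S, 60 min at room temperature. Filter-bound radioactivity counted; IC50 converted to Ki by Cheng-Prusoff. Agonism/inverse agonism tested without histamine (EC50).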

T1 sequence (Q9Y5N1 with tags, fused parts or gaps): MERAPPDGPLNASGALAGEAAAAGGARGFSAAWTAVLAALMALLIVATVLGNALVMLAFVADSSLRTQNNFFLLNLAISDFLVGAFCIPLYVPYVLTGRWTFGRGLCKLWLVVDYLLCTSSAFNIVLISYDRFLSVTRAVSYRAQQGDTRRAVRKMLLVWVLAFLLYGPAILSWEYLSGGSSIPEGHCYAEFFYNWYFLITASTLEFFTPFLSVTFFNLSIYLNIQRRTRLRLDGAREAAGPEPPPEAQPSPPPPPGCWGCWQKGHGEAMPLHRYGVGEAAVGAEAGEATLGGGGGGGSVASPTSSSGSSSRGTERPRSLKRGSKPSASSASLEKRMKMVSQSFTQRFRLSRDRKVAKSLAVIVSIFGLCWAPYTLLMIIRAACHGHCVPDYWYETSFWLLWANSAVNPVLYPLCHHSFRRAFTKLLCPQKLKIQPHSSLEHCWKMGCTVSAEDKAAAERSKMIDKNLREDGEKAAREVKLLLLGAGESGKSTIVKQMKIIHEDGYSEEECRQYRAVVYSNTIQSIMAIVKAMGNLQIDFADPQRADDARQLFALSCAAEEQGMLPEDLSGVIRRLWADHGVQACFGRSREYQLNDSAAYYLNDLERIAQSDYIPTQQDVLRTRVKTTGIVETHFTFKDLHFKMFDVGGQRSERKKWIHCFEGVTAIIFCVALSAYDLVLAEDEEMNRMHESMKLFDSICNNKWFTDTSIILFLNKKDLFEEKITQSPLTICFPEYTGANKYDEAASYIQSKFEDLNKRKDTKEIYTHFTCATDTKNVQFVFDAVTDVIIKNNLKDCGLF

| SMILES | Ki |
| --- | --- |
| CC(O)c1ccc2c(c1)CCN(CC(=O)N1CCN(C3CCC3)CC1)C2 (centres unmarked) [Compound 219, 1-{2-[2-(4-cyclobutylpiperazin-1-yl)-2-oxoethyl]-1,2,3,4-tetrahydroisoquinolin-6-yl}ethanol] | < 1000 nM |
| O=C(CN1CCc2cc(N3CCOCC3)nnc2C1)N1CCN(C2CCC2)CC1 [Compound 220, 7-[2-(4-cyclobutylpiperazin-1-yl)-2-oxoethyl]-3-morpholin-4-yl-5,6,7,8-tetrahydropyrido[3,4-c]pyridazine] | < 1000 nM |
| O=C(CN1CCc2cc(N3CCCC3)nnc2C1)N1CCN(C2CCC2)CC1 [Compound 221, 7-[2-(4-cyclobutylpiperazin-1-yl)-2-oxoethyl]-3-pyrrolidin-1-yl-5,6,7,8-tetrahydropyrido[3,4-c]pyridazine] | < 1000 nM |
| O=C(CN1CCc2nc(N3CCCCC3)ccc2C1)N1CCN(C2CCC2)CC1 [Compound 222, 6-[2-(4-cyclobutylpiperazin-1-yl)-2-oxoethyl]-2-piperidin-1-yl-5,6,7,8-tetrahydro-1,6-naphthyridine] | < 1000 nM |
| CN(C)c1ccc2c(n1)CCN(CC(=O)N1CCN(C3CCC3)CC1)C2 [Compound 224, 6-[2-(4-cyclobutylpiperazin-1-yl)-2-oxoethyl]-N,N-dimethyl-5,6,7,8-tetrahydro-1,6-naphthyridin-2-amine] | < 1000 nM |
| O=C(CN1CCc2nc(N3CCC(F)C3)ccc2C1)N1CCN(C2CCC2)CC1 (centres unmarked) [Compound 225, 6-[2-(4-cyclobutylpiperazin-1-yl)-2-oxoethyl]-2-(3-fluoropyrrolidin-1-yl)-5,6,7,8-tetrahydro-1,6-naphthyridine] | < 1000 nM |
| O=C(CN1CCc2nc(N3CCC(O)C3)ccc2C1)N1CCN(C2CCC2)CC1 (centres unmarked) [Compound 226, 1-{6-[2-(4-cyclobutylpiperazin-1-yl)-2-oxoethyl]-5,6,7,8-tetrahydro-1,6-naphthyridin-2-yl}pyrrolidin-3-ol] | < 1000 nM |
| O=C(CN1CCc2nc(-n3cccc3)ccc2C1)N1CCN(C2CCC2)CC1 [Compound 227, 6-[2-(4-cyclobutylpiperazin-1-yl)-2-oxoethyl]-2-(1H-pyrrol-1-yl)-5,6,7,8-tetrahydro-1,6-naphthyridine] | < 1000 nM |
| O=C(CN1CCc2nccnc2C1)N1CCN(C2CCC2)CC1 [Compound 228, 6-[2-(4-cyclobutylpiperazin-1-yl)-2-oxoethyl]-5,6,7,8-tetrahydropyrido[3,4-b]pyrazine] | < 1000 nM |
| O=C(CN1CCc2cc(-n3cc4ccccc4n3)ccc2C1)N1CCN(C2CCC2)CC1 [Compound 229, 2-[2-(4-cyclobutylpiperazin-1-yl)-2-oxoethyl]-6-(2H-indazol-2-yl)-1,2,3,4-tetrahydroisoquinoline] | < 1000 nM |
| O=C(CN1CCc2cc(-n3ncc4ccccc43)ccc2C1)N1CCN(C2CCC2)CC1 [Compound 230, 2-[2-(4-cyclobutylpiperazin-1-yl)-2-oxoethyl]-6-(1H-indazol-1-yl)-1,2,3,4-tetrahydroisoquinoline] | < 1000 nM |
| O=C(CN1CCc2cc(-c3ccc4nccn4c3)ccc2C1)N1CCN(C2CCC2)CC1 [Compound 231, 2-[2-(4-cyclobutylpiperazin-1-yl)-2-oxoethyl]-6-imidazo[1,2-a]pyridin-6-yl-1,2,3,4-tetrahydroisoquinoline] | < 1000 nM |
| O=C(CN1CCc2cc(-c3cncnc3)nnc2C1)N1CCN(C2CCC2)CC1 [Compound 232, 7-[2-(4-cyclobutylpiperazin-1-yl)-2-oxoethyl]-3-pyrimidin-5-yl-5,6,7,8-tetrahydropyrido[3,4-c]pyridazine] | < 1000 nM |
| O=C(CN1CCc2cc(-c3cccc(F)c3)nnc2C1)N1CCN(C2CCC2)CC1 [Compound 233, 7-[2-(4-cyclobutylpiperazin-1-yl)-2-oxoethyl]-3-(3-fluorophenyl)-5,6,7,8-tetrahydropyrido[3,4-c]pyridazine] | < 1000 nM |
| O=C(CN1CCc2c(cnn2-c2ccc(F)cc2)C1)N1CCN(C2CCC2)CC1 [Compound 234, 5-[2-(4-cyclobutylpiperazin-1-yl)-2-oxoethyl]-1-(4-fluorophenyl)-4,5,6,7-tetrahydro-1H-pyrazolo[4,3-c]pyridine] | < 1000 nM |
| O=C(CN1CCc2c(cnn2-c2cccc(F)c2)C1)N1CCN(C2CCC2)CC1 [Compound 235, 5-[2-(4-cyclobutylpiperazin-1-yl)-2-oxoethyl]-1-(3-fluorophenyl)-4,5,6,7-tetrahydro-1H-pyrazolo[4,3-c]pyridine] | < 1000 nM |
| O=C(CN1CCc2nn(-c3ccc(F)cc3)cc2C1)N1CCN(C2CCC2)CC1 [Compound 236, 5-[2-(4-cyclobutylpiperazin-1-yl)-2-oxoethyl]-2-(4-fluorophenyl)-4,5,6,7-tetrahydro-2H-pyrazolo[4,3-c]pyridine] | < 1000 nM |
| O=C(CN1CCc2nn(-c3ccc(C(F)(F)F)cc3)cc2C1)N1CCN(C2CCC2)CC1 [Compound 237, 5-[2-(4-cyclobutylpiperazin-1-yl)-2-oxoethyl]-2-[4-(trifluoromethyl)phenyl]-4,5,6,7-tetrahydro-2H-pyrazolo[4,3-c]pyridine] | < 1000 nM |

Continued, values first:

| Ki | SMILES |
| --- | --- |
| < 1000 nM | CC(=O)c1ccc(-n2cc3c(n2)CCN(CC(=O)N2CCN(C4CCC4)CC2)C3)nn1 [Compound 202, 1-(6-{5-[2-(4-cyclobutylpiperazin-1-yl)-2-oxoethyl]-4,5,6,7-tetrahydro-2H-pyrazolo[4,3-c]pyridin-2-yl}pyridazin-3-yl)ethanone] |
| < 1000 nM | N#Cc1ccc(-n2cc3c(n2)CCN(CC(=O)N2CCN(C4CCC4)CC2)C3)nn1 [Compound 203, 6-{5-[2-(4-cyclobutylpiperazin-1-yl)-2-oxoethyl]-4,5,6,7-tetrahydro-2H-pyrazolo[4,3-c]pyridin-2-yl}pyridazine-3-carbonitrile] |
| < 1000 nM | O=C(CN1CCc2nc(N3CCCC3)ncc2C1)N1CCN(C2CCC2)CC1 [Compound 204, 6-[2-(4-cyclobutylpiperazin-1-yl)-2-oxoethyl]-2-pyrrolidin-1-yl-5,6,7,8-tetrahydropyrido[4,3-d]pyrimidine] |
| < 1000 nM | CC1CCCC1N1CCN(C(=O)CN2CCc3nc(N4CCOCC4)ncc3C2)CC1 (centres unmarked) [Compound 205, 6-{2-[4-(2-methylcyclopentyl)piperazin-1-yl]-2-oxoethyl}-2-morpholin-4-yl-5,6,7,8-tetrahydropyrido[4,3-d]pyrimidine] |
| < 1000 nM | CC(=O)c1ccc2c(c1)CCN(CC(=O)N1CCN(C3CCCC3C)CC1)C2 (centres unmarked) [Compound 206, 1-(2-{2-[4-(2-methylcyclopentyl)piperazin-1-yl]-2-oxoethyl}-1,2.3,4-tetrahydroisoquinolin-6-yl)ethanone] |
| < 1000 nM | O=C(CN1CCc2cc(-n3cncn3)ccc2C1)N1CCN(C2CCC2)CC1 [Compound 207, 2-[2-(4-cyclobutylpiperazin-1-yl)-2-oxoethyl]-6-(1H-1,2,4-triazol-1-yl)-1,2,3,4-tetrahydroisoquinoline] |
| < 1000 nM | O=C(CN1CCc2cc(-n3ccnn3)ccc2C1)N1CCN(C2CCC2)CC1 [Compound 208, 2-[2-(4-cyclobutylpiperazin-1-yl)-2-oxoethyl]-6-(1H-1,2,3-triazol-1-yl)-1,2,3,4-tetrahydroisoquinoline] |
| < 1000 nM | O=C(CN1CCc2cc(-n3nccn3)ccc2C1)N1CCN(C2CCC2)CC1 [Compound 209, 2-[2-(4-cyclobutylpiperazin-1-yl)-2-oxoethyl]-6-(2H-1,2,3-triazol-2-yl)-1,2,3,4-tetrahydroisoquinoline] |
| < 1000 nM | O=C(CN1CCc2cc(N3CCOC3=O)ccc2C1)N1CCN(C2CCC2)CC1 [Compound 210, 3-{2-[2-(4-cyclobutylpiperazin-1-yl)-2-oxoethyl]-1,2,3,4-tetrahydroisoquinolin-6-yl}-1,3-oxazolidin-2-one] |
| < 1000 nM | O=C(CN1CCc2cc(N3CCCCC3=O)ccc2C1)N1CCN(C2CCC2)CC1 [Compound 211, 1-{2-[2-(4-cyclobutylpiperazin-1-yl)-2-oxoethyl]-1,2,3,4-tetrahydroisoquinolin-6-yl}piperidin-2-one] |
| < 1000 nM | Cn1cccc(-c2ccc3c(c2)CCN(CC(=O)N2CCN(C4CCC4)CC2)C3)c1=O [Compound 212, 3-{2-[2-(4-cyclobutylpiperazin-1-yl)-2-oxoethyl]-1,2,3,4-tetrahydroisoquinolin-6-yl}-1-methylpyridin-2(1H)-one] |
| < 1000 nM | O=C(CN1CCc2cc(-n3cccnc3=O)ccc2C1)N1CCN(C2CCC2)CC1 [Compound 213, 1-{2-[2-(4-cyclobutylpiperazin-1-yl)-2-oxoethyl]-1,2,3,4-tetrahydroisoquinolin-6-yl}pyrimidin-2(1H)-one] |
| < 1000 nM | O=C(CN1CCc2c(cnn2-c2ccc(Cl)nn2)C1)N1CCN(C2CCC2)CC1 [Compound 214, 1-(6-chloropyridazin-3-yl)-5-[2-(4-cyclobutylpiperazin-1-yl)-2-oxoethyl]-4,5,6,7-tetrahydro-1H-pyrazolo[4,3-c]pyridine] |
| < 1000 nM | N#Cc1ccc(-n2ncc3c2CCN(CC(=O)N2CCN(C4CCC4)CC2)C3)nn1 [Compound 215, 6-{5-[2-(4-cyclobutylpiperazin-1-yl)-2-oxoethyl]-4,5,6,7-tetrahydro-1H-pyrazolo[4,3-c]pyridin-1-yl}pyridazine-3-carbonitrile] |
| < 1000 nM | CC(=O)c1ccc(-n2ncc3c2CCN(CC(=O)N2CCN(C4CCC4)CC2)C3)nn1 [Compound 216, 1-(6-{5-[2-(4-cyclobutylpiperazin-1-yl)-2-oxoethyl]-4,5,6,7-tetrahydro-1H-pyrazolo[4,3-c]pyridin-1-yl}pyridazin-3-yl)ethanone] |
| < 1000 nM | Cc1cnn(-c2ccc3c(c2)CCN(CC(=O)N2CCN(C4CCC4)CC2)C3)c1 [Compound 217, 2-[2-(4-cyclobutylpiperazin-1-yl)-2-oxoethyl]-6-(4-methyl-1H-pyrazol-1-yl)-1,2,3,4-tetrahydroisoquinoline] |
| < 1000 nM | CC1CCCC1N1CCN(C(=O)CN2CCc3nc(N4CCCC4)ncc3C2)CC1 (centres unmarked) [Compound 218, 6-{2-[4-(2-methylcyclopentyl)piperazin-1-yl]-2-oxoethyl}-2-pyrrolidin-1-yl-5,6,7,8-tetrahydropyrido[4,3-d]pyrimidine] |
